The results in this text go back to patent US4927922A, “7β-(substituted)amino-3-substituted cephalosporanic acids and esters” (American Cyanamid Company, priority 1988, dated 1990).

Common to all, as to test: in vitro agar dilution test (MIC)
Format in all cases: cell-based

The test system of assay [1] is Acinetobacter STFD 79-17. To be noted: Mueller-Hinton agar. As to the method:
(§1) The compounds of the present invention are active antibacterial agents as established in the in vitro agar dilution test using Mueller-Hinton agar. The test compounds were dissolved in a mixture of dimethyl sulfoxide and aqueous sodium bicarbonate and applied as 1 ml of drug solution plus 9 ml of agar per plate. The innoculum was a 5 hour TSB shake culture diluted to 10^-2 with Mueller-Hinton broth and applied to the plates with a Steers' Replicator.
(§2) The results of this test on representative compounds of this invention (identified by Example Number) against a variety of microorganisms appear in Tables I and II in terms of minimal inhibitory concentration (MIC) in mcg/ml together with Cefotaxime, Cephalothin and Ampicillin as positive controls.

Assay [2] relates to Enterobacter aerogenes STFD 79-14. To be noted: Klebsiella aerogenes, STFD7914, Enterobacter aerogenes STFD 79-14; Mueller-Hinton agar. The method, then: as §1, §2
Assay [3] concerns Enterococcus OSU 75-1. As to conditions: Mueller-Hinton agar. The method, then:
as §1, §2

In assay [4] the test system is Proteus rettgheri K 77-6. As to conditions: Mueller-Hinton agar. As to the method: as §1, §2
Assay [5] concerns Proteus rettgheri N 76-1. As to conditions: Mueller-Hinton agar. The method, then:
as §1, §2

The test system of assay [6] is Providencia stuarti K 81-29. To be noted: K8129, Mueller-Hinton agar. As to the method:
as §1, §2

Assay [7] deals with Providencia stuarti SSC 80-78. To be noted: SSC8078, Mueller-Hinton agar. As to the method: as §1, §2
Assay [8] concerns Pseudomonas 12-4-4. As to conditions: Mueller-Hinton agar. As to the method: as §1, §2
For assay [9], the system named is Pseudomonas SSC 78-13. As to conditions: SSC7813, Mueller-Hinton agar. The method, then:
as §1, §2

Assay [10] concerns Pseudomonas aeruginosa ATCC 27853. As to conditions: Mueller-Hinton agar. As to the method:
as §1, §2

The test system of assay [11] is Salmonella SSC 79-57. As to conditions: SSC7957, Mueller-Hinton agar. The method, then: as §1, §2
Assay [12] has as its system Staphylococcus FU 79-19-2β^+. To be noted: Mueller-Hinton agar. As to the method:
as §1, §2

Assay [13] relates to Staphylococcus Smith. To be noted: Mueller-Hinton agar, Table I. As to the method:
as §1, §2

In assay [14] the test system is Acinetobacter K 77-1. As to conditions: K771, Acinetobacter K 77-1, Mueller-Hinton agar. As to the method:
as §1, §2

Assay [15] has as its system Enterobacter cloacae K 79-16. As to conditions: K7916, Enterobacter cloacae K 79-16, Mueller-Hinton agar. The method, then:
as §1, §2

The test system of assay [16] is Enterococcus SM 77-15. To be noted: SM7715, Enterococcus SM 77-15, Mueller-Hinton agar. The method, then:
as §1, §2

Assay [17] deals with Escherichia coli 311. To be noted: Escherichia coli, 311, Escherichia coli 311; Mueller-Hinton agar. As to the method: as §1, §2
The subject of assay [18] is Escherichia coli ATCC 25922. As to conditions: ATCC25922, Escherichia coli ATCC 25922, Mueller-Hinton agar, Table I. As to the method: as §1, §2
Assay [19] relates to Escherichia coli ESS 22-31. As to conditions: ESS2231, Mueller-Hinton agar. As to the method:
as §1, §2

The subject of assay [20] is Escherichia coli STFD 79-20. To be noted: STFD7920, Escherichia coli STFD 79-20, Mueller-Hinton agar. The method, then:
as §1, §2

Assay [21] concerns Klebsiella SSC 78-1. As to conditions: SSC781, Klebsiella SSC 78-1, Mueller-Hinton agar. The method, then: as §1, §2
Assay [22] deals with Klebsiella STFD 79-6. To be noted: STFD796, Klebsiella STFD 79-6, Mueller-Hinton agar. As to the method: as §1, §2
The subject of assay [23] is Klebsiella pneumoniae AD. To be noted: Mueller-Hinton agar, Table I. As to the method: as §1, §2
For assay [24], the system named is Proteus morganii K 79-25. As to conditions: Morganella morganii, K7925, Proteus morganii K 79-25; Mueller-Hinton agar. The method, then: as §1, §2
Assay [25] relates to Salmonella ariz. QHC 77-3. To be noted: Mueller-Hinton agar. As to the method:
as §1, §2

In assay [26] the test system is Serratia QHC 77-2. As to conditions: QHC772, Serratia QHC 77-2, Mueller-Hinton agar. As to the method:
as §1, §2

Assay [27] has as its system Serratia TUL 78-15. To be noted: TUL7815, Serratia TUL 78-15, Mueller-Hinton agar. The method, then:
as §1, §2

The test system of assay [28] is Staphylococcus ATCC 25923. To be noted: ATCC25923, Staphylococcus ATCC 25923, Mueller-Hinton agar, Table I. As to the method:
as §1, §2

For assay [29], the system named is Staphylococcus SSC 79-18β^-. As to conditions: Mueller-Hinton agar. The method, then:
as §1, §2

For assay [30], the system named is Micrococcus lutea PCI 1001. To be noted: PCI1001, Micrococcus lutea PCI 1001, Mueller-Hinton agar. As to the method:
as §1, §2

Setting [31] is: Acinetobacter, STFD7917, Acinetobacter STFD 79-17, read-out: MIC.
Where [32] appears, read: Enterococcus, OSU751, Enterococcus OSU 75-1, read-out: MIC.
Where [33] appears, read: Pseudomonas, 1244, Pseudomonas 12-4-4, read-out: MIC.
Where [34] appears, read: Pseudomonas aeruginosa, ATCC27853, Pseudomonas aeruginosa ATCC 27853, read-out: MIC.

In brackets after ≈: the same amount, converted by molar mass. Several values for one entry are separate records, joined by “and”; a condition that tells them apart may be missing. Equal entries are not always repeated. Where two headings read alike, the source gives them in different places.

Consider `CO/N=C(\C(=O)N[C@@H]1C(=O)N2C(C(=O)O)=C(COC(C)=O)CS[C@H]12)c1csc(N)n1` [Cefotaxime, 3-[(acetyloxy)methyl]-7β-[[(2-amino-4-thiazolyl)(methoxyimino)acetyl]amino]-8-oxo-5-thia-1-azabicyclo[4.2.0]oct-2-ene-2-carboxylic acid, reference compound], for which the minimum inhibitory concentration (MIC) was 16 mg/L (≈ 35.1 µM) in [1] (Acinetobacter STFD 79-17); 8 mg/L (≈ 17.6 µM) in [1] (setting [31]); 0.03 mg/L (≈ 0.0659 µM) in [2]; 64 mg/L and > 128 mg/L in [3] (Enterococcus OSU 75-1); 128 mg/L (≈ 281 µM) in assay [3] (setting [32]); not above 0.06 mg/L in [4]. In addition, the MIC in assay [5] is not above 0.015 mg/L; in assay [6], 0.25 mg/L (≈ 0.549 µM); in assay [7], not above 0.06 mg/L; in assay [8] (Pseudomonas 12-4-4), 8 mg/L (≈ 17.6 µM); in [8] (setting [33]) it was 16 mg/L (≈ 35.1 µM); in [9] it was 32 mg/L (≈ 70.3 µM). For the same compound, the MIC in assay [10] (Pseudomonas aeruginosa ATCC 27853) came to 32 mg/L (≈ 70.3 µM); in [10] (setting [34]), 16 mg/L (≈ 35.1 µM); in assay [11], 0.25 mg/L (≈ 0.549 µM); in assay [12], 8 mg/L (≈ 17.6 µM); in assay [12] (Staphylococcus, read-out: MIC), 4 mg/L (≈ 8.78 µM); in [13], 2 mg/L (≈ 4.39 µM). For the same compound, the minimal inhibitory concentration (MIC) in assay [13] (Staphylococcus, read-out: MIC) came to 1 mg/L (≈ 2.2 µM).
`CO/N=C(\C(=O)N[C@@H]1C(=O)N2C(C(=O)O)=C(CSc3nnsc3-c3ccccc3)CS[C@H]12)c1csc(N)n1` [Example 1, (Z)-7-[[(2-Amino-4-thiazolyl)(methoxyimino)acetyl]amino]-8-oxo-3-[[(5-phenyl-1,2,3-thiadiazol-4-yl)thio]mehtyl]-5-thia-1-azabicyclo[4.2.0]oct-2-ene-2-carboxylic acid]: the MIC was 4 mg/L (≈ 6.78 µM) in [14]; 16 mg/L (≈ 27.1 µM) in assay [1] (setting [31]); 1 mg/L (≈ 1.7 µM) in [2]; 4 mg/L (≈ 6.78 µM) in [15]; 128 mg/L (≈ 217 µM) in [3] (setting [32]); 64 mg/L (≈ 109 µM) in [16]. In addition, the MIC was 0.5 mg/L (≈ 0.848 µM) in assay [17]; 0.12 mg/L (≈ 0.203 µM) in assay [18]; not above 0.015 mg/L in assay [19]; 0.5 mg/L (≈ 0.848 µM) in assay [20]; 0.5 mg/L (≈ 0.848 µM) in [21]; 0.5 mg/L (≈ 0.848 µM) in assay [22]. Besides, the minimal inhibitory concentration (MIC) in [23] is 0.25 mg/L (≈ 0.424 µM); in [24] it was 0.5 mg/L (≈ 0.848 µM); in [5] it was not above 0.015 mg/L; in [8] (setting [33]) it was more than 128 mg/L; in assay [9], 128 mg/L (≈ 217 µM); in [10] (setting [34]), 128 mg/L (≈ 217 µM). For the same compound, the MIC in assay [11] worked out at 4 mg/L (≈ 6.78 µM); in assay [25], 1 mg/L (≈ 1.7 µM); in assay [26], 8 mg/L (≈ 13.6 µM); in assay [27], 8 mg/L (≈ 13.6 µM); in assay [28] it was 2 mg/L (≈ 3.39 µM); in assay [12] (Staphylococcus, read-out: MIC) it was 4 mg/L (≈ 6.78 µM). In addition, the MIC in [29] is 1 mg/L (≈ 1.7 µM); in [13] (Staphylococcus, read-out: MIC), 1 mg/L (≈ 1.7 µM).
`CO/N=C(\C(=O)N[C@@H]1C(=O)N2C(C(=O)O)=C(CSc3nnsc3-c3ccc(C(C)(C)C)cc3)CS[C@H]12)c1csc(N)n1` [Example 2, (Z)-7-[[(2-Amino-4-thiazolyl)(methoxyimino)acetyl]amino]-3-[[[5-[4-(1,1-dimethylethyl)phenyl]-1,2,3-thiadiazol-4-yl]thio]methyl]-8-oxo-5-thia-1-azabicyclo-[4.2.0]oct-2-ene-2-carboxylic acid]: the MIC was 16 mg/L (≈ 24.8 µM) in assay [14]; 128 mg/L (≈ 198 µM) in assay [1] (setting [31]); 0.5 mg/L (≈ 0.774 µM) in assay [2]; 2 mg/L (≈ 3.1 µM) in assay [15]; 256 mg/L (≈ 396 µM) in [3] (setting [32]); 256 mg/L (≈ 396 µM) in assay [16]. Further, the MIC in assay [17] was 0.25 mg/L (≈ 0.387 µM); in assay [18], 0.06 mg/L (≈ 0.0929 µM); in assay [19], not above 0.03 mg/L; in [20], 0.25 mg/L (≈ 0.387 µM); in assay [21], 0.06 mg/L (≈ 0.0929 µM); in assay [22], 0.06 mg/L (≈ 0.0929 µM). Also, the MIC in assay [23] is 0.06 mg/L (≈ 0.0929 µM); in assay [30], 0.06 mg/L (≈ 0.0929 µM); in assay [24] it was 0.5 mg/L (≈ 0.774 µM); in assay [5] it was not above 0.03 mg/L; in assay [8] (setting [33]), more than 256 mg/L; in [9] it was more than 256 mg/L. For the same compound, the MIC was more than 256 mg/L in [10] (setting [34]); 4 mg/L (≈ 6.19 µM) in [11]; 1 mg/L (≈ 1.55 µM) in assay [25]; 32 mg/L (≈ 49.5 µM) in assay [26]; 32 mg/L (≈ 49.5 µM) in assay [27]; 16 mg/L (≈ 24.8 µM) in [28]. For the same compound, the MIC in assay [12] (Staphylococcus, read-out: MIC) was found to be 32 mg/L (≈ 49.5 µM); in [29], 8 mg/L (≈ 12.4 µM); in assay [13] (Staphylococcus, read-out: MIC), 8 mg/L (≈ 12.4 µM).
